Patent US20230348369A1 (Cytokinetics, Inc., priority 2020, published 2023)
Where two headings read alike, the source gives them in different places.

Target: human NAMPT (Homo sapiens, UniProt P43490)
Assay: Human recombinant enzyme assay (NMN fluorescence biochemical assay, activation of NAMPT)
How it was run: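 Activation of recombinant human NAMPT (6 nM) with 2.5 mM ATP, 20 μM PRPP and 150 μM nicotinamide in 50 mM HEPES pH 7.2, 1 mM DTT, 1 mM CHAPS, 50 mM NaCl, 100 mM MgCl2; 60 min, ambient temperature. NMN formed was derivatized with acetophenone/KOH/formic acid, fluorescence read at 355/460 nm after 40 min.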

[1] = Table A, human recombinant NAMPT, NMN formation, 60 min
[2] = Table A, human recombinant NAMPT, NMN formation, 60 min, read-out: EC50 Human

human NAMPT, sequence (P43490 whole entry): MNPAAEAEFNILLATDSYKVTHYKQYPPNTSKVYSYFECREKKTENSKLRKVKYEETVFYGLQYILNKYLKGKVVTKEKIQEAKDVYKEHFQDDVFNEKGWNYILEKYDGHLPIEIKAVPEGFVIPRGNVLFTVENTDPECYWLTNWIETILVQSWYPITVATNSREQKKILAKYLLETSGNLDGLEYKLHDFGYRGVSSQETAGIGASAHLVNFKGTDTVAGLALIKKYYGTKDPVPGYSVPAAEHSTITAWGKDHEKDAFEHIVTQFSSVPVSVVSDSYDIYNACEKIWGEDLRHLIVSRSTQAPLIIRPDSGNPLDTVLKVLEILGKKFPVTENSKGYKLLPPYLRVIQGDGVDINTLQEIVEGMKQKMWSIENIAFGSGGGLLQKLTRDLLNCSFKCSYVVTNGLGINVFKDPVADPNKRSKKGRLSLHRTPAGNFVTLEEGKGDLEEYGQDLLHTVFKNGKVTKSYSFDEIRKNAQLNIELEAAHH

| AC1.4 Human [1] | EC50 [2] | SMILES | EC50 |
| --- | --- | --- | --- |
| 1.2 µM | 3.4 µM | Cc1ccc(CC(=O)N2CCC(CCCCNC(=O)NCc3ccc(Cl)cc3)CC2)cn1 [Compound 311, 1-(4-chlorobenzyl)-3-(4-(1-(2-(6-methylpyridin-3-yl)acetyl)piperidin-4-yl)butyl)urea] | – |
| 1.5 µM | 5.4 µM | Cn1cc(C(=O)N2CCC(CCCCNC(=O)NCc3ccc(Cl)cc3)CC2)nn1 [Compound 312, 1-(4-chlorobenzyl)-3-(4-(1-(1-methyl-1H-1,2,3-triazole-4-carbonyl)piperidin-4-yl)butyl)urea] | – |
| 0.7 µM | 1.4 µM | Cc1ccccc1CC(=O)N1CCC(CCCCNC(=O)NCc2ccc(Cl)cc2)CC1 [Compound 313, 1-(4-chlorobenzyl)-3-(4-(1-(2-(o-tolyl)acetyl)piperidin-4-yl)butyl)urea] | – |
| 0.5 µM | 0.7 µM | O=C(NCCCCC1CCN(C(=O)c2ccccc2C(F)F)CC1)NCc1ccc(Cl)cc1 [Compound 314, 1-(4-chlorobenzyl)-3-(4-(1-(2-(difluoromethyl)benzoyl)piperidin-4-yl)butyl)urea] | – |
| 0.9 µM | 2 µM | O=C(NCCCCC1CCN(C(=O)c2ccccc2-c2nnn[nH]2)CC1)NCc1ccc(Cl)cc1 [Compound 315, 1-(4-(1-(2-(1H-tetrazol-5-yl)benzoyl)piperidin-4-yl)butyl)-3-(4-chlorobenzyl)urea] | – |
| 1.4 µM | 6.4 µM | O=C(NCCCCC1CCN(C(=O)Cc2cn[nH]c2)CC1)NCc1ccc(Cl)cc1 [Compound 316, 1-(4-(1-(2-(1H-pyrazol-4-yl)acetyl)piperidin-4-yl)butyl)-3-(4-chlorobenzyl)urea] | – |
| 4.2 µM | 25.1 µM | O=C(NCCCCN1CCN(C(=O)c2ccccc2)CC1)NCc1ccc(Cl)cc1 [Compound 317, 1-(4-(4-benzoylpiperazin-1-yl)butyl)-3-(4-chlorobenzyl)urea] | – |
| 3.9 µM | 8.8 µM | O=C(NCCCCC1CCN(c2nn[nH]n2)CC1)NCc1ccc(Cl)cc1 [Compound 318, 1-(4-(1-(2H-tetrazol-5-yl)piperidin-4-yl)butyl)-3-(4-chlorobenzyl)urea] | – |
| 0.8 µM | 0.8 µM | Cc1cccc(C)c1C(=O)N1CCC(CCCCNC(=O)NCc2ccc(Cl)cc2)CC1 [Compound 319, 1-(4-chlorobenzyl)-3-(4-(1-(2,6-dimethylbenzoyl)piperidin-4-yl)butyl)urea] | – |
| 0.1 µM | 1.4 µM | Cc1ccccc1C(=O)N1CCC(CCCCNC(=O)NCc2cnco2)CC1 [Compound 320, 1-(4-(1-(2-methylbenzoyl)piperidin-4-yl)butyl)-3-(oxazol-5-ylmethyl)urea] | – |
| 0.1 µM | 2.1 µM | Cc1ccccc1C(=O)N1CCC(CCCCNC(=O)NCc2ccc(C(N)=O)cc2)CC1 [Compound 321, 4-((3-(4-(1-(2-methylbenzoyl)piperidin-4-yl)butyl)ureido)methyl)benzamide] | – |
| 0.2 µM | 1.6 µM | Cc1ccccc1C(=O)N1CCC(CCCCNC(=O)NCc2ccncc2)CC1 [Compound 323, 1-(4-(1-(2-methylbenzoyl)piperidin-4-yl)butyl)-3-(pyridin-4-ylmethyl)urea] | – |
| 0.2 µM | 1.9 µM | [2H]C([2H])(NC(=O)NCCCCC1CCN(C(=O)c2ccccc2)CC1)c1cnco1 [Compound 324, 1-(4-(1-benzoylpiperidin-4-yl)butyl)-3-(oxazol-5-ylmethyl-d2)urea] | – |
| 1.2 µM | 4.3 µM | O=C(NCc1ccc(Cl)cc1)NC1CC2(C1)CC(C(O)c1ccccc1)C2 (centres unmarked) [Compound 328, 1-(4-chlorobenzyl)-3-(6-(hydroxy(phenyl)methyl)spiro[3.3]heptan-2-yl)urea] | – |
| 2.2 µM | 1.3 µM | O=C(NCc1ccc(Cl)cc1)NC1CC2(CC(Cc3cnccn3)C2)C1 (centres unmarked) [Compound 331, 1-(4-chlorobenzyl)-3-(6-(pyrazin-2-ylmethyl)spiro[3.3]heptan-2-yl)urea] | – |
| 2.3 µM | 2.7 µM | COc1ccc(CNC(=O)NC2CC3(CC(Cc4ccc(C)cc4)C3)C2)cc1 (centres unmarked) [Compound 334, 1-(4-methoxybenzyl)-3-(6-(4-methylbenzyl)spiro[3.3]heptan-2-yl)urea] | – |
| 1.1 µM | 2.2 µM | COc1ccc(CNC(=O)NC2CC3(CC(Cc4cccc(C)c4)C3)C2)cc1 (centres unmarked) [Compound 335, 1-(4-Methoxybenzyl)-3-(6-(3-methylbenzyl)spiro[3.3]heptan-2-yl)urea] | – |
| 0.7 µM | 2.1 µM | COc1ccc(CNC(=O)NC2CC3(CC(Cc4ccccc4C)C3)C2)cc1 (centres unmarked) [Compound 336, 1-(4-methoxybenzyl)-3-(6-(2-methylbenzyl)spiro[3.3]heptan-2-yl)urea] | – |
| 1.0 µM | 26.1 µM | COc1ccc(CNC(=O)NC2CC3(CC(Cc4ccc(C)nc4)C3)C2)cc1 (centres unmarked) [Compound 337, 1-(4-methoxybenzyl)-3-(6-((6-methylpyridin-3-yl)methyl)spiro[3.3]heptan-2-yl)urea] | – |

The next lines start with the compound.

| SMILES | AC1.4 Human [1] | EC50 [2] | EC50 |
| --- | --- | --- | --- |
| Cc1cccc(CC(=O)N2CCC(CCCCNC(=O)NCc3ccc(Cl)cc3)CC2)n1 [Compound 299, 1-(4-chlorobenzyl)-3-(4-(1-(2-(6-methylpyridin-2-yl)acetyl)piperidin-4-yl)butyl)urea] | 1.0 µM | 3.8 µM | – |
| O=C(NCCCCC1CCN(C(=O)C2CCOCC2)CC1)NCc1ccc(Cl)cc1 [Compound 300, 1-(4-chlorobenzyl)-3-(4-(1-(tetrahydro-2H-pyran-4-carbonyl)piperidin-4-yl)butyl)urea] | 1.4 µM | 6.5 µM | – |
| O=C1CC(C(=O)N2CCC(CCCCNC(=O)NCc3ccc(Cl)cc3)CC2)CCN1 (centres unmarked) [Compound 301, 1-(4-chlorobenzyl)-3-(4-(1-(2-oxopiperidine-4-carbonyl)piperidin-4-yl)butyl)urea] | 2.7 µM | 26.3 µM | – |
| CN1CCC(C(=O)N2CCC(CCCCNC(=O)NCc3ccc(Cl)cc3)CC2)CC1=O (centres unmarked) [Compound 302, 1-(4-chlorobenzyl)-3-(4-(1-(1-methyl-2-oxopiperidine-4-carbonyl)piperidin-4-yl)butyl)urea] | 2.0 µM | 7.9 µM | – |
| O=C1CC(C(=O)N2CCC(CCCCNC(=O)NCc3ccc(Cl)cc3)CC2)CN1 (centres unmarked) [Compound 303, 1-(4-chlorobenzyl)-3-(4-(1-(5-oxopyrrolidine-3-carbonyl)piperidin-4-yl)butyl)urea] | 2.6 µM | 15.6 µM | – |
| CN1CC(C(=O)N2CCC(CCCCNC(=O)NCc3ccc(Cl)cc3)CC2)CC1=O (centres unmarked) [Compound 304, 1-(4-chlorobenzyl)-3-(4-(1-(1-methyl-5-oxopyrrolidine-3-carbonyl)piperidin-4-yl)butyl)urea] | 1.7 µM | 10.6 µM | – |
| O=C(NCCCCC1CCN(C(=O)c2ncco2)CC1)NCc1ccc(Cl)cc1 [Compound 305, 1-(4-chlorobenzyl)-3-(4-(1-(oxazole-2-carbonyl)piperidin-4-yl)butyl)urea] | 0.2 µM | 0.4 µM | – |
| O=C(NCCCCC1CCN(C(=O)c2ccno2)CC1)NCc1ccc(Cl)cc1 [Compound 306, 1-(4-chlorobenzyl)-3-(4-(1-(isoxazole-5-carbonyl)piperidin-4-yl)butyl)urea] | 0.4 µM | 1.2 µM | – |
| O=C(NCCCCC1CCN(c2ccccn2)CC1)NCc1ccc(Cl)cc1 [Compound 307, 1-(4-chlorobenzyl)-3-(4-(1-(pyridin-2-yl)piperidin-4-yl)butyl)urea] | 1.9 µM | 7.3 µM | – |
| O=C(NCCCCC1CCN(c2ccncc2)CC1)NCc1ccc(Cl)cc1 [Compound 308, 1-(4-chlorobenzyl)-3-(4-(1-(pyridin-4-yl)piperidin-4-yl)butyl)urea] | 2.2 µM | 5 µM | – |
| Cc1ccc(C(=O)N2CCC(CCCCNC(=O)NCc3ccc(Cl)cc3)CC2)cn1 [Compound 309, 1-(4-chlorobenzyl)-3-(4-(1-(6-methylnicotinoyl)piperidin-4-yl)butyl)urea] | 2.1 µM | 6.5 µM | – |
| Cc1ncccc1CC(=O)N1CCC(CCCCNC(=O)NCc2ccc(Cl)cc2)CC1 [Compound 310, 1-(4-chlorobenzyl)-3-(4-(1-(2-(2-methylpyridin-3-yl)acetyl)piperidin-4-yl)butyl)urea] | 0.8 µM | 4.1 µM | – |
| COc1ccc(CNC(=O)NC2CC3(C2)CC(c2nnc(-c4ccccc4)o2)C3)cc1 (centres unmarked) [Compound 325, 1-(4-Methoxybenzyl)-3-(6-(5-phenyl-1,3,4-oxadiazol-2-yl)spiro[3.3]heptan-2-yl)urea] | 2.4 µM | 30.6 µM | – |
| COc1ccc(CNC(=O)NC2CC3(C2)CC(c2nc(-c4ccccc4)co2)C3)cc1 (centres unmarked) [Compound 326, 1-(4-methoxybenzyl)-3-(6-(4-phenyloxazol-2-yl)spiro[3.3]heptan-2-yl)urea] | 4.5 µM | – | – |
| COc1ccc(CNC(=O)NC2CC3(C2)CC(c2nc4ccccc4o2)C3)cc1 (centres unmarked) [Compound 327, 1-(6-(benzo[d]oxazol-2-yl)spiro[3.3]heptan-2-yl)-3-(4-methoxybenzyl)urea] | 4.1 µM | – | 17.4 µM |
| N#Cc1cnn(CC2CC3(C2)CC(NC(=O)NCc2ccc(Cl)cc2)C3)c1 (centres unmarked) [Compound 333, 1-(4-chlorobenzyl)-3-(6-((4-cyano-1H-pyrazol-1-yl)methyl)spiro[3.3]heptan-2-yl)urea] | 1.8 µM | – | 4.4 µM |
| Cc1ccc(C(C)(O)C2CC3(CC(NC(=O)NCc4ccc(Cl)cc4)C3)C2)cn1 (centres unmarked) [Compound 338, 1-(4-chlorobenzyl)-3-(6-(1-hydroxy-1-(6-methylpyridin-3-yl)ethyl)spiro[3.3]heptan-2-yl)urea] | 6.4 µM | 10.3 µM | – |
